# Data published in patent US7863315B2, “2-indolinone derivatives as selective histone deacetylase inhibitors” (Shenzhen Chipscreen Biosciences, Ltd., priority 2008, dated 2011).
# Key:
# [1] = tested on: HDAC class I (p21 reporter gene); assay: HDAC subtype reporter gene assay, p21-promoter luciferase in HeLa cells; format: cell-based; settings: Homo sapiens, M-HeLa, read-out: % of SAHA Response for HDAC class I at 10 μM (p21 reporter gene), 24 hours
# Protocol: (§1) Measurement of inhibition of HDAC subtypes activity in cells by reporter gene assay: HDAC subtype selectivity inhibition assay of tested compounds was carried out by several reporter gene assays experiments. Briefly, HeLa cells were seeded in 96-well plates the day before transfection to give a confluence of 50-80%. Cells were transfected with one of reporter gene plasmids containing a promoter sequences or response elements upstream of a luciferase gene construct using FuGene6 transfection reagent according to the manufacturer's instructions (Roche). The promoters or response elements including p21-promoter, gdf11-promoter, MEF-binding element (MEF2), Nur77-promoter were fused upstream to the luciferase gene reporter construct. For normalizing the transfection efficiency, a GFP expression plasmid was cotransfected. Cells were allowed to express protein for 24 hours followed by addition of individual compounds or the vehicle (DMSO). 24 hours later, the cells were harvested and the luciferase assays were performed using the luciferase assay kit according to the manufacturer's instructions (Promega). To normalize the data from the luciferase assays, GFP activity from transfected cells was measured in a microtiter-plate reading fluorimeter capable of excitation at a wavelength at 485 nm and detection of emitted light at 527 nm.
# lysine acetylation = assay: ELISA assay of acetylation of lysine in HeLa cells; format: cell-based; settings: Homo sapiens, M-HeLa, 24 hours
# Source text: Measurement of acetylation activity in cells on substrates:
# ELISA Assay of Acetylation of Lysine
# This assay is used to measure in vivo inhibition of HDAC6 in a cytoblot assay.
# Materials and Reagent: • 1. 24-well tissue culture • 2. DMEM Medium containing 10% FBS • 3. 96-well white plate • 4. HeLa cell line • 5. M-PER Mammalian Protein Extraction Reagent (Pierce) • 6. Bradford assay reagent • 7. Acetylated-lysine polyclonal Antibody (Cell Signaling) • 8. HRP-labeled anti-rabbit IgG (Upstate) • 9. Coating Buffer: 15 mM Na2CO3, 35 mM NaHCO3 (pH 9.6) • 10. 10×PBS: 0.58M Na2HPO4, 0.17M NaH2PO4, 0.68M NaCl (pH 7.4) • 11. Wash Buffer:1×PBS containing 0.05% Tween-20 (PBST) • 12. Blocking Buffer:10 mg/ml bocine serum albumin (BSA) in PBS • 13. Antibody Dilution Buffer: 5 mg/ml BSA in PBST • 14. Enhanced chemiluminescence (ECL) (Amersham)
# Procedure for performing the assay in 96-well plate: • 1. HeLa cells were seeded at a density of 60000 cells/500 μl/well in 24-well plate and incubated at 37° C. for 24 hours. • 2. Compounds were added and incubated for 24 hours at 37° C. • 3. Culture medium was removed, then washes the cells twice with ice-cold PBS. • 4. Add 100 μl/well of Protein Extraction Reagent and gently shake the mixture for 5 minutes. • 5. Collect the lysate to a 96-well plate respectively. Determine the concentration of protein by Bradford assay. • 6. Coat the wells of a 96-well white plate with 100 μl/well of 2.5 μg whole cell protein in Coating Buffer by incubating overnight at 4° C. • 7. Discard the uncoated proteins and wash the coated wells three times with 200 μl/well of PBST. • 8. Block coated wells by incubating the plate with 200 μl/well of Blocking Buffer for 1 hour at 37° C. • 9. Wells were aspirated and washed three times with 200 μl/well of PBST. • 10. After aspirating, 50 μl/well of Antibody Dilution Buffer containing acetylated-lysine polyclonal antibody (1:1000) were added to each well and incubated for 2 hour at 37° C. • 11. Wells were aspirated and washed three times with 200 μl/well of PBST. • 12. 50 μl/well of Antibody Dilution Buffer containing HRP-labeled anti-rabbit IgG (1:2000) were added to each well and incubated for 2 hour at 37° C. • 13. Wells were aspirated and washed three times with 200 μl/well of PBST. • 14. Wells were washed three times with 200 μl/well of purified water. • 15. Add 50 μl/well of ECL mixture, then read the plates on the plate reader.
# [2] = tested on: HDAC4/5 (MEF2 reporter gene); assay: HDAC subtype reporter gene assay, MEF-binding element (MEF2) luciferase in HeLa cells; format: cell-based; settings: Homo sapiens, M-HeLa, read-out: % of SAHA Response for HDAC4/5 at 10 μM (MEF2 reporter gene), 24 hours
# Protocol: as §1
# [3] = tested on: HDAC7 (Nur77 reporter gene); assay: HDAC subtype reporter gene assay, Nur77-promoter luciferase in HeLa cells; format: cell-based; settings: Homo sapiens, M-HeLa, read-out: % of SAHA Response for HDAC7 at 10 μM (Nur77 reporter gene), 24 hours
# Protocol: as §1
# [4] = tested on: HDAC3 (gdf11 reporter gene); assay: HDAC subtype reporter gene assay, gdf11-promoter luciferase in HeLa cells; format: cell-based; settings: Homo sapiens, M-HeLa, read-out: % of SAHA Response for HDAC3 at 10 μM (gdf11 reporter gene), 24 hours
# Protocol: as §1
# [5] = tested on: total HDAC enzyme (HeLa extract); assay: In vitro inhibition of total HDAC enzyme activity (HDAC Fluorimetric Assay/Drug Discovery Kit, BIOMOL); format: biochemical, human
# Protocol: Measurement of in vitro inhibition of total HDAC enzyme activity:
# The in vitro inhibition of total HDAC enzyme was determined by HDAC Fluorimetric Assay/Drug Discovery Kit (BIOMOL) according to manufacture's instruction. • 1. Add Assay buffer, diluted trichostatin A or test inhibitor to appropriate wells of the microtiter plate. Following table lists examples of various assay types and the additions required for each test.
# • 2. Add diluted HeLa extract or other HDAC sample to all wells except those that are to be “No Enzyme Controls” (Blank). • 3. Allow diluted Fluor de LyS™ Substrate and the samples in the microtiter plate to equilibrate to assay temperature (25° C.). • 4. Initiate HDAC reactions by adding diluted substrate (25 μl) to each well and mixing thoroughly. • 5. Allow HDAC reactions to proceed for desired length of time and then stop them by addition of Fluor de Lys™ Developer (50 μl). Incubate plate at room temperature (25° C.) for 10-15 min. • 6. Read samples in a microtiter-plate reading fluorimeter capable of excitation at a wavelength in the range 350-380 nm and detection of emitted light in the range 440-460 nm.
Compound,% of Inhibition on Total HDAC Enzyme at 30 μM [5],Emax at 10 µM [1],fold induction at 10 µM (lysine acetylation),Emax at 10 µM [2],Emax at 10 µM [3],Emax at 10 µM [4]
"Cc1[nH]c(/C=N/N=C2\C(=O)Nc3ccc(F)cc32)c(C)c1C(=O)NCCCCC(=O)Nc1ccccc1N [Example 7, 5-(5-(((5-fluoro-2-oxoindolin-3-ylidene)hydrazono)methyl)-2,4-dimethyl-1H-pyrrole-3-carboxamido)-N-(2-aminophenyl)pentanamide]",2%,11%,1.58,23%,3%,7%
"Cc1[nH]c(/C=N/N=C2\C(=O)Nc3ccc(F)cc32)c(C)c1C(=O)NCCCCC(=O)Nc1ccc(F)cc1N [Example 8, 5-(5-(((5-fluoro-2-oxoindolin-3-ylidene)hydrazono)methyl)-2,4-dimethyl-1H-pyrrole-3-carboxamido)-N-(2-amino-4-fluorophenyl)pentanamide]",−26%,7%,2.01,23%,4%,5%
"Cc1[nH]c(/C=N/N=C2\C(=O)Nc3ccc(F)cc32)c(C)c1C(=O)NCCCCCC(=O)NO [Example 11, 6-(5-(((5-fluoro-2-oxoindolin-3-ylidene)hydrazono)methyl)-2,4-dimethyl-1H-pyrrole-3-carboxamido)-N-hydroxyhexanamide]",86%,52%,1.87,27%,9%,49%
"Cc1[nH]c(/C=N/N=C2\C(=O)Nc3ccc(F)cc32)c(C)c1C(=O)NCCCCCC(=O)Nc1ccc(F)cc1N [Example 12, 6-(5-(((5-fluoro-2-oxoindolin-3-ylidene)hydrazono)methyl)-2,4-dimethyl-1H-pyrrole-3-carboxamido)-N-(2-amino-4-fluorophenyl)hexanamide]",14%,9%,1.84,35%,6%,6%
"Cc1[nH]c(/C=N/N=C2\C(=O)Nc3ccc(F)cc32)c(C)c1C(=O)NCCCCCC(=O)Nc1ccccc1N [Example 13, 6-(5-(((5-fluoro-2-oxoindolin-3-ylidene)hydrazono)methyl)-2,4-dimethyl-1H-pyrrole-3-carboxamido)-N-(2-aminophenyl)hexanamide]",30%,18%,3.08,18%,5%,13%
"Cc1[nH]c(/C=N/N=C2\C(=O)Nc3ccc(F)cc32)c(C)c1C(=O)NCCCCCCCC(=O)NO [Example 26, 8-(5-(((5-fluoro-2-oxoindolin-3-ylidene)hydrazono)methyl)-2,4-dimethyl-1H-pyrrole-3-carboxamido)-N-hydroxyoctanamide]",98%,53%,2.42,20%,11%,38%
"Cc1[nH]c(/C=N/N=C2\C(=O)Nc3ccc(F)cc32)c(C)c1C(=O)NCCCCCCCC(=O)Nc1ccc(F)cc1N [Example 27, 8-(5-(((5-fluoro-2-oxoindolin-3-ylidene)hydrazono)methyl)-2,4-dimethyl-1H-pyrrole-3-carboxamido)-N-(2-amino-4-fluorophenyl)octanamide]",5%,8%,2.13,37%,6%,6%

# Continued, in another order:
% of Inhibition on Total HDAC Enzyme at 30 μM [5],Compound,Emax at 10 µM [1],fold induction at 10 µM (lysine acetylation),Emax at 10 µM [2],Emax at 10 µM [3],Emax at 10 µM [4]
18%,"Cc1[nH]c(/C=N/N=C2\C(=O)Nc3ccc(F)cc32)c(C)c1C(=O)NCCCCCCCC(=O)Nc1ccccc1N [Example 28, 8-(5-(((5-fluoro-2-oxoindolin-3-ylidene)hydrazono)methyl)-2,4-dimethyl-1H-pyrrole-3-carboxamido)-N-(2-aminophenyl)octanamide]",36%,1.7,32%,16%,26%
89%,"O=C(CCCCCNC(=O)c1ccc(/C=N/N=C2\C(=O)Nc3ccc(F)cc32)cc1)NO [Example 31, 6-(4-(((5-fluoro-2-oxoindolin-3-ylidene)hydrazono)methyl)benzamido)-N-hydroxyhexanamide]",39%,1.67,30%,8%,36%
20%,"Nc1ccccc1NC(=O)CCCCCNC(=O)c1ccc(/C=N/N=C2\C(=O)Nc3ccc(F)cc32)cc1 [Example 32, 6-(4-(((5-fluoro-2-oxoindolin-3-ylidene)hydrazono)methyl)benzamido)-N-(2-aminophenyl)hexanamide]",17%,1.32,28%,5%,12%
22%,"Nc1ccccc1NC(=O)CCCCCCCNC(=O)c1ccc(/C=N/N=C2\C(=O)Nc3ccc(F)cc32)cc1 [Example 35, 8-(4-(((5-fluoro-2-oxoindolin-3-ylidene)hydrazono)methyl)benzamido)-N-(2-aminophenyl)octanamide]",56%,1.04,46%,13%,36%
−16%,"Nc1cc(F)ccc1NC(=O)CCCCCCCNC(=O)c1ccc(/C=N/N=C2\C(=O)Nc3ccc(F)cc32)cc1 [Example 36, 8-(4-(((5-fluoro-2-oxoindolin-3-ylidene)hydrazono)methyl)benzamido)-N-(2-amino-4-fluorophenyl)octanamide]",9%,1.35,50%,7%,6%
